Data: patent US20100086587A1, “HARD SHELL CAPSULE FORMULATIONS” (priority 2006, published 2010)

Assay: Moisture loss or gain of filled capsules exposed to a 50% RH environment until equilibrium
Type: physicochemical
Details: 50% R.H. environment
Experimental: An alternative method for evaluating the level of water required to provide a stable hygroscopic formulation involves the preparation of capsules containing different water contents and then quantifying moisture loss or gain when exposed to a 50% RH environment (middle of acceptable RH range for capsules 35% RH to 65% RH). Maltitol, a sugar which is also a hygroscopic excipient, was dissolved in water to produce several aqueous maltitol solutions of concentration 16, 18, 20, 22, 24, 26, 28, 30, 32, 34 and 36% water in maltitol. Both gelatin and HPMC capsules were filled with the various concentrations of solution and the capsules were sealed by banding. The capsules were then exposed to a 50% R.H environment and allowed the capsules to re-equilibrate.
Weight loss (and water loss) ceased when the capsules shell content was in equilibrium with the capsule shell and with the 50% R.H. environment. The equilibrium water content in maltitol that produced stables capsules was approximately 14% water content for gelatin capsules and approximately 13% water content for HPMC capsules.

Structure (SMILES): OC[C@@H](O)[C@@H](O[C@H]1O[C@H](CO)[C@@H](O)[C@H](O)[C@H]1O)[C@H](O)[C@@H](O)CO [maltitol, Maltitol]
- equilibrium water content in maltitol that produced stable capsules (HPMC capsules): approximately 13%
- equilibrium water content in maltitol that produced stable capsules (gelatin capsules): approximately 14%
